One test addresses T1, IDO1 (Homo sapiens, UniProt P14902).
T1 construct: endogenous in cells; host or cells: HeLa cells (ATCC), IFNgamma-induced
In words: IDO1 cell-based assay (HeLa cells, IFNgamma-induced, N-formylkynurenine/L-tryptophan by RFMS). The conditions noted are these: 10 ng/mL IFNgamma, 24 hours. The essentials:
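N-formylkynurenine and tryptophan peak areas in media measured by RFMS (C18, isocratic, d-Trp standard), giving IC50 values by regression. Source: HeLa cells incubated 24 h with IFNgamma (10 ng/mL) plus test compound at 0.5% DMSO; parallel CellTiter-Glo viability read.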

The next test has as its target T2, mouse IDO1 (Mus musculus, UniProt P28776).
T2 construct: The murine PANC02 pancreatic ductal adenocarcinoma cell line was routinely maintained in DMEM media; endogenous in cells; host or cells: PANC02 murine pancreatic ductal adenocarcinoma cells, induced with mouse IFNgamma
Put plainly: Mouse IDO1 cell-based assay (PANC02 cells, mouse IFNgamma-induced, N-formylkynurenine/L-tryptophan by RFMS). Conditions: 30 ng/mL mouse IFNgamma, 48 hours. Here is the method:
The murine PANC02 pancreatic ductal adenocarcinoma cell line was routinely maintained in DMEM media containing 10% FBS. Cells (3,000/well) were seeded onto a 384 well plate in 50 μl of media and incubated at 37° C., 5% CO2 overnight. Cell media was aspirated, fresh media containing 30 ng/mL mouse IFNgamma (Gibco Life Technologies, cat #PMC4031) was added, and cells were incubated in absence or presence of various concentrations of compounds (final 0.5% DMSO) for 48 hours at 37° C., 5% CO2. Aliquots of the cell conditioned media was removed from the cell plate, and mixed with equal volume of 200 mM ZnSO4 to precipitate media containing protein. Two volumes of acetonitrile were added by mixing, and samples were then centrifuged at 2250G for 20 minutes at 4° C. Aliquots of the supernatant were diluted 1:10 in 0.1% formic acid containing 3 μM of deuterated Tryptophan as an internal standard.
Samples were analyzed via RFMS to quantify N-Formyl Kynurenine (AUC) and L-tryptophan (AUC). A C18 cartridge was used with mobile phases of 0.1% Formic Acid and 80% ACN/0.1% Formic Acid under isocratic conditions. Dose-response curves were analyzed using IC50 regression curve fitting (GeneData Screener). Curves were plotted as percent of control and normalized by high controls without inhibitor (100%), and low controls (0%) containing 1 μM of epacadostat. Cell viability was also assessed using the Cell Titer Glo Kit (Promega) following manufacture recommendation.

Some results are limits rather than exact numbers.

T1 sequence (P14902 whole entry): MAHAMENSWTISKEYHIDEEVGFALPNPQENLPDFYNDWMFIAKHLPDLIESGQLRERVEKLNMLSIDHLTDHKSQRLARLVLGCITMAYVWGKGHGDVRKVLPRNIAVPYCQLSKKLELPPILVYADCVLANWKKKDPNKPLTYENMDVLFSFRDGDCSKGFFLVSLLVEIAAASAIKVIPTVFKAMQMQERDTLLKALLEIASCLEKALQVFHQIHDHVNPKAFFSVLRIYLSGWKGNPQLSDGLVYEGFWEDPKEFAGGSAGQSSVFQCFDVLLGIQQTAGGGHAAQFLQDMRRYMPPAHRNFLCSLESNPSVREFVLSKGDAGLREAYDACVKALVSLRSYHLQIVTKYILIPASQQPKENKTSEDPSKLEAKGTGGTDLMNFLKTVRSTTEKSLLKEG
T2 sequence (P28776 whole entry): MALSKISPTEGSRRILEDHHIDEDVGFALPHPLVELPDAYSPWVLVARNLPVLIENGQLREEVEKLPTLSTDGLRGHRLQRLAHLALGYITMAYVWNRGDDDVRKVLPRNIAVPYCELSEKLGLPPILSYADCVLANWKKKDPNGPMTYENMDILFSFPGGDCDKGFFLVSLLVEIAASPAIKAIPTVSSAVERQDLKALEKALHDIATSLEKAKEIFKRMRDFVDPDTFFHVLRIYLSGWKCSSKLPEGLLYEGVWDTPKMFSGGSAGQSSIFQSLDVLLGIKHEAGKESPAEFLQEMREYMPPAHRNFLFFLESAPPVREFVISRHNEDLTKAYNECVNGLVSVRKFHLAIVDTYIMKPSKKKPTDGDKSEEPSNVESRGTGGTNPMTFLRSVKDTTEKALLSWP

With `CCc1cn([C@@H]2C[C@@H]3[C@H](C2)[C@H]3C(CC)NC(=O)c2ccc(Cl)cc2)nn1` (stereo partly drawn) [Compound 167, 4-chloro-N-(1-((1R,3s,5S,6r)-3-(4-ethyl-1H-1,2,3-triazol-1-yl)bicyclo[3.1.0]hexan-6-yl)propyl)benzamide], the IC50 against IDO1 is < 200 nM; at mouse IDO1, < 500 nM.

As for `O=C(NC(CO)[C@H]1[C@@H]2C[C@@H](n3cc(C4CC4)nn3)C[C@@H]21)c1ccc(Cl)cc1` (stereo partly drawn) [Compound 168, 4-chloro-N-(1-((1R,3s,5S,6r)-3-(4-cyclopropyl-1H-1,2,3-triazol-1-yl)bicyclo[3.1.0]hexan-6-yl)-2-hydroxyethyl)benzamide], the IC50 was 2000 to 5000 nM against IDO1 and > 5000 nM against mouse IDO1.

With `CCC(NC(=O)c1ccc(Cl)cc1)[C@H]1[C@@H]2C[C@@H](NC(=O)c3ncc(F)cc3F)C[C@@H]21` (stereo partly drawn) [Compound 171, N-((1R,3s,5S,6r)-6-(1-(4-chlorobenzamido)propyl)bicyclo[3.1.0]hexan-3-yl)-3,5-difluoropicolinamide], the results for the concentration for half-maximal inhibition (IC50) on IDO1 and on mouse IDO1 were < 200 nM and 500 to 2000 nM, respectively.

In the case of `CCC(NC(=O)c1ccc(Cl)cc1)[C@H]1[C@@H]2C[C@@H](N3Cc4ccccc4C3=O)C[C@@H]21` (stereo partly drawn) [Compound 175, 4-chloro-N-(1-((1R,3s,5S,6r)-3-(1-oxoisoindolin-2-yl)bicyclo[3.1.0]hexan-6-yl)propyl)benzamide], the IC50 against IDO1 is < 200 nM; against mouse IDO1, 500 to 2000 nM.

As for `CCC(NC(=O)c1ccc(Cl)cc1)[C@H]1[C@@H]2C[C@@H](NC(=O)c3cn[nH]c3)C[C@@H]21` (stereo partly drawn) [Compound 177, N-((1R,3s,5S,6r)-6-(1-(4-chlorobenzamido)propyl)bicyclo[3.1.0]hexan-3-yl)-1H-pyrazole-4-carboxamide], the IC50 against IDO1 was 200 to 2000 nM; at mouse IDO1, > 5000 nM.

`CCC(NC(=O)c1ccc(Cl)cc1)[C@H]1[C@@H]2C[C@@H](n3nnc4ccc(Br)cc43)C[C@@H]21` (stereo partly drawn) [Compound 178, N-(1-((1R,3s,5S,6r)-3-(6-bromo-1H-benzo[d][1,2,3]triazol-1-yl)bicyclo[3.1.0]hexan-6-yl)propyl)-4-chlorobenzamide]: the IC50 was < 200 nM against IDO1 and < 500 nM against mouse IDO1.

For the compound `CCC(NC(=O)c1ccc(Cl)cc1)[C@H]1[C@@H]2C[C@@H](n3nc4ccc(Br)cc4n3)C[C@@H]21` (stereo partly drawn) [Compound 179, N-(1-((1R,3s,5S,6r)-3-(5-bromo-2H-benzo[d][1,2,3]triazol-2-yl)bicyclo[3.1.0]hexan-6-yl)propyl)-4-chlorobenzamide], the IC50 is < 200 nM against IDO1 and 2000 to 5000 nM against mouse IDO1.

With `CCC(NC(=O)c1ccc(Cl)cc1)[C@H]1[C@@H]2C[C@@H](n3c(=O)[nH]c4ccccc43)C[C@@H]21` (stereo partly drawn) [Compound 180, 4-chloro-N-(1-((1R,3s,5S,6r)-3-(2-oxo-2,3-dihydro-1H-benzo[d]imidazol-1-yl)bicyclo[3.1.0]hexan-6-yl)propyl)benzamide], the half-inhibitory concentration (IC50) against IDO1 is 200 to 2000 nM; against mouse IDO1 it was 500 to 2000 nM.

On to `CCC(NC(=O)c1ccc(Cl)cc1)[C@H]1[C@@H]2C[C@@H](n3c(=O)n(C)c4ccccc43)C[C@@H]21` (stereo partly drawn) [Compound 181, 4-chloro-N-(1-((1R,3s,5S,6r)-3-(3-methyl-2-oxo-2,3-dihydro-1H-benzo[d]imidazol-1-yl)bicyclo[3.1.0]hexan-6-yl)propyl)benzamide], for which the IC50 on IDO1 was < 200 nM; on mouse IDO1, < 500 nM.

Turning to `CCC(NC(=O)c1ccc(Cl)cc1)[C@H]1[C@@H]2C[C@@H](n3cccc4ncnc3-4)C[C@@H]21` (stereo partly drawn) [Compound 182, N-(1-((1R,3s,5S,6r)-3-(4H-imidazo[4,5-b]pyridin-4-yl)bicyclo[3.1.0]hexan-6-yl)propyl)-4-chlorobenzamide], the figures for the 50% inhibitory concentration (IC50) against IDO1 and on mouse IDO1 were 200 to 2000 nM and > 5000 nM, respectively.

As for `CCC(NC(=O)c1ccc(Cl)cc1)[C@H]1[C@@H]2C[C@@H](N3CCOC3=O)C[C@@H]21` (stereo partly drawn) [Compound 185, 4-chloro-N-(1-((1R,3s,5S,6r)-3-(2-oxooxazolidin-3-yl)bicyclo[3.1.0]hexan-6-yl)propyl)benzamide], the IC50 lay within 200 to 2000 nM against IDO1 and 2000 to 5000 nM on mouse IDO1.

One may read the IC50 as the point on the concentration scale where inhibition reaches its midpoint. Read a high IC50 as a need for much substance.

Source of the values: patent US11173145B2, “Compounds useful as inhibitors of indoleamine 2,3-dioxygenase and/or tryptophan dioxygenase” (Board of Regents, The University of Texas System, priority 2017, dated 2021).
